Laboratory results from the NIST ThermoML archive (doi:10.1021/je100315g).

What was measured:
[1] = xn = mol fraction of the nth substance listed; settings: 101 kPa, Liquid
[2] = 101 kPa, Liquid

C1CCOC1 [tetrahydrofuran] + CCCC[n+]1ccn(C)c1.O=S(=O)([N-]S(=O)(=O)C(F)(F)F)C(F)(F)F
[1], x2 = 0
Settings	mass density [kg/m3]
293.15 K	887.41
298.15 K	881.98
303.13 K	876.47
308.15 K	870.96

CCn1cc[n+](C)c1.O=S(=O)([N-]S(=O)(=O)C(F)(F)F)C(F)(F)F
[2]
Settings	mass density [kg/m3]
293.15 K	1522.08
298.15 K	1516.96
303.13 K	1511.85
308.15 K	1506.8
313.15 K	1501.74

CCCC[n+]1ccn(C)c1.O=S(=O)([N-]S(=O)(=O)C(F)(F)F)C(F)(F)F
[2]
Settings	mass density [kg/m3]
293.15 K	1441.63
298.15 K	1436.83
303.13 K	1431.98
308.15 K	1427.16
313.15 K	1422.36

CC#N [acetonitrile]
[2]
Settings	mass density [kg/m3]
293.15 K	781.89
298.15 K	776.52
303.13 K	771.12
308.15 K	765.68
313.15 K	760.2

CC#N [acetonitrile] + CCCC[n+]1ccn(C)c1.O=S(=O)([N-]S(=O)(=O)C(F)(F)F)C(F)(F)F
[1], x2 = 0
Settings	mass density [kg/m3]
293.15 K	781.89
298.15 K	776.52
303.13 K	771.12
308.15 K	765.68
313.15 K	760.2

C1CCOC1 [tetrahydrofuran]
[2]
Settings	mass density [kg/m3]
293.15 K	887.41
298.15 K	881.98
303.13 K	876.47
308.15 K	870.96

CCn1cc[n+](C)c1.O=S(=O)([N-]S(=O)(=O)C(F)(F)F)C(F)(F)F + CC#N
mass density [kg/m3], [1]
Settings	x1 = 0.0533	x1 = 0.1886	x1 = 0.337	x1 = 0.4724	x1 = 0.652	x1 = 0.8245	x1 = 0.924	x1 = 1
293.15 K	946.96	1183.76	1316.94	1390.06	1452.53	1492.64	1510.36	1522.08
298.15 K	941.54	1178.5	1311.68	1384.82	1447.4	1487.58	1505.26	1516.96
303.13 K	936.1	1173.4	1306.48	1379.62	1442.24	1482.39	1500.2	1511.85
308.15 K	930.61	1168.18	1301.14	1374.57	1437.1	1477.35	1495.13	1506.8
313.15 K	925.26	1162.68	1296.39	1369.51	1432.02	1472.28	1490.11	1501.74

CCn1cc[n+](C)c1.O=S(=O)([N-]S(=O)(=O)C(F)(F)F)C(F)(F)F + C[S+](C)[O-]
mass density [kg/m3], [1]
Settings	x1 = 0.0593	x1 = 0.1959	x1 = 0.3595	x1 = 0.5086	x1 = 0.6325	x1 = 0.7778	x1 = 0.9378	x1 = 1
293.15 K	1173.7	1289.73	1375.56	1427.76	1459.88	1489.12	1513.61	1522.08
298.15 K	1168.67	1284.68	1370.44	1422.61	1454.75	1484.04	1508.51	1516.96
303.13 K	1163.66	1279.59	1365.31	1417.47	1449.64	1478.96	1503.42	1511.85
308.15 K	1158.66	1274.53	1360.26	1412.42	1444.59	1473.89	1498.38	1506.8
313.15 K	1153.63	1269.48	1355.2	1407.36	1439.52	1468.84	1493.29	1501.74

CCCC[n+]1ccn(C)c1.O=S(=O)([N-]S(=O)(=O)C(F)(F)F)C(F)(F)F + C[S+](C)[O-]
mass density [kg/m3], [1]
Settings	293.15 K	298.15 K	303.13 K	308.15 K	313.15 K
x1 = 0.1025	1202.34	1197.39	1192.43	1187.49	1182.55
x1 = 0.196	1263.15	1258.21	1253.26	1248.31	1243.37
x1 = 0.2358	1283.38	1278.4	1273.45	1268.49	1263.51
x1 = 0.3241	1319.45	1314.52	1309.58	1304.64	1299.72
x1 = 0.4205	1349.72	1344.81	1339.88	1334.99	1330.05
x1 = 0.4785	1364.67	1359.72	1354.8	1349.87	1344.87
x1 = 0.5179	1373.61	1368.67	1363.77	1358.86	1353.93
x1 = 0.5911	1388.28	1383.33	1378.5	1373.59	1368.72
x1 = 0.6581	1400.07	1395.16	1390.25	1385.42	1380.54
x1 = 0.8232	1423.06	1418.22	1413.34	1408.48	1403.6
x1 = 1	1441.63	1436.83	1431.98	1427.16	1422.36

CCn1cc[n+](C)c1.O=S(=O)([N-]S(=O)(=O)C(F)(F)F)C(F)(F)F + C1CCOC1
mass density [kg/m3], [1]
Settings	x1 = 0.1037	x1 = 0.2024	x1 = 0.3255	x1 = 0.3841	x1 = 0.4425	x1 = 0.5469	x1 = 0.6863	x1 = 0.7697	x1 = 0.9177	x1 = 1
293.15 K	1065.02	1178.77	1278.55	1315.59	1347.51	1395.4	1444.8	1469.16	1505.22	1522.08
298.15 K	1061.32	1173.6	1274.14	1310.96	1342.57	1390.69	1440.1	1464.51	1500.21	1516.96
303.13 K	1056.14	1168.46	1269.66	1306.48	1337.7	1385.78	1435.45	1459.45	1495.17	1511.85
308.15 K	1051.2	1163.55	1264.42	1301.8	1332.56	1381.31	1430.62	1454.67	1490.13	1506.8

CCCC[n+]1ccn(C)c1.O=S(=O)([N-]S(=O)(=O)C(F)(F)F)C(F)(F)F + CC#N
mass density [kg/m3], [1]
Settings	x1 = 0.0971	x1 = 0.2033	x1 = 0.2989	x1 = 0.471	x1 = 0.6261	x1 = 0.7423	x1 = 0.8983	x1 = 1
293.15 K	1034.65	1175.45	1252.06	1335.15	1380.43	1404.79	1429.03	1441.63
298.15 K	1029.33	1170.35	1247.09	1330.18	1375.57	1400.01	1424.12	1436.83
303.13 K	1024.05	1165.12	1242.32	1325.41	1370.72	1395.36	1419.28	1431.98
308.15 K	1019.47	1160.25	1237.21	1320.49	1365.88	1390.45	1414.54	1427.16
313.15 K	1014.26	1155.05	1232.4	1315.67	1361.14	1385.64	1409.73	1422.36

CCCC[n+]1ccn(C)c1.O=S(=O)([N-]S(=O)(=O)C(F)(F)F)C(F)(F)F + C1CCOC1
mass density [kg/m3], [1]
Settings	x1 = 0.0488	x1 = 0.1139	x1 = 0.1771	x1 = 0.2815	x1 = 0.4048	x1 = 0.4897	x1 = 0.6329	x1 = 0.7468	x1 = 0.9071	x1 = 1
293.15 K	978.17	1069.71	1136.61	1218.29	1286.31	1321.41	1367.37	1395.56	1426.74	1441.63
298.15 K	973.69	1065.22	1132.17	1213.74	1281.83	1317.1	1362.88	1391.06	1421.92	1436.83
303.13 K	970.01	1060.65	1128.01	1209.23	1277.24	1312.14	1358.73	1386.29	1417.19	1431.98
308.15 K	964.12	1055.92	1122.34	1204.63	1272.69	1307.42	1353.21	1381.45	1412.45	1427.16

CC#N [acetonitrile] + CCn1cc[n+](C)c1.O=S(=O)([N-]S(=O)(=O)C(F)(F)F)C(F)(F)F
[1], x2 = 0
Settings	mass density [kg/m3]
293.15 K	781.89
298.15 K	776.52
303.13 K	771.12
308.15 K	765.68
313.15 K	760.2

C[S+](C)[O-] [dimethyl sulfoxide]
[2]
Settings	mass density [kg/m3]
293.15 K	1100.31
298.15 K	1095.3
303.13 K	1090.31
308.15 K	1085.27
313.15 K	1080.27

C[S+](C)[O-] [dimethyl sulfoxide] + CCn1cc[n+](C)c1.O=S(=O)([N-]S(=O)(=O)C(F)(F)F)C(F)(F)F
[1], x2 = 0
Settings	mass density [kg/m3]
293.15 K	1100.31
298.15 K	1095.3
303.13 K	1090.31
308.15 K	1085.27
313.15 K	1080.27

C1CCOC1 [tetrahydrofuran] + CCn1cc[n+](C)c1.O=S(=O)([N-]S(=O)(=O)C(F)(F)F)C(F)(F)F
[1], x2 = 0
Settings	mass density [kg/m3]
293.15 K	887.41
298.15 K	881.98
303.13 K	876.47
308.15 K	870.96

C[S+](C)[O-] [dimethyl sulfoxide] + CCCC[n+]1ccn(C)c1.O=S(=O)([N-]S(=O)(=O)C(F)(F)F)C(F)(F)F
[1], x2 = 0
Settings	mass density [kg/m3]
293.15 K	1100.31
298.15 K	1095.3
303.13 K	1090.31
308.15 K	1085.27
313.15 K	1080.27
